# According to the supplement of paper PMC11281043:
# Columns and labels:
# [1] = system: Danio rerio embryo/larva; test: BMC edema; higher = less potent; details: max tested concentration (log10 uM): 1.90309; exposure: 6-8 hpf to 5 dpf, scored at 6 dpf
# Procedure, shortened: (§1)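 Wild-type zebrafish embryos with chorions were placed one per well at 6–8 hpf in 200 μL 10% Hanks' and dosed with an 8-point half-log DMSO series (0.4% DMSO final). Plates were sealed, held at 26 °C with n = 6 per concentration, and larvae were rinsed at 5 dpf. At 6 dpf two blinded assessors scored mortality, hatching and malformations; scores are % of living larvae affected (mortality as % dead), unnormalised. Benchmark concentration was fitted in tcpl (bounded models, lowest AIC) at a benchmark response of 1.349 × baseline standard deviation.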
# [2] = system: Danio rerio embryo/larva; test: BMC abnormal position; higher = less potent; details: max tested concentration (log10 uM): 1.90309; exposure: 6-8 hpf to 5 dpf, scored at 6 dpf
# Procedure: (§2)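 Zebrafish embryos (with chorion) were exposed from 6-8 hpf to each PFAS (8-point half-log series, top concentration up to 100 uM, 0.4% DMSO, sealed plates, 26 C; n = 6 embryos per concentration), rinsed at 5 dpf and scored at 6 dpf by two blinded observers for mortality, hatching and malformations. Endpoint scores are the % of living larvae affected (dead larvae excluded; […]). Curves were fitted with tcpl (cutoff 16%), and the BMC is the concentration at a benchmark response of 21.6%.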
# [3] = system: Danio rerio embryo/larva; test: BMC craniofacial defects; higher = less potent; details: max tested concentration (log10 uM): 1.90309; exposure: 6-8 hpf to 5 dpf, scored at 6 dpf
# Procedure: as §2
# [4] = system: Danio rerio embryo/larva; test: BMC swim bladder non-inflation; higher = less potent; details: max tested concentration (log10 uM): 1.90309; exposure: 6-8 hpf to 5 dpf, scored at 6 dpf
# Procedure, shortened: as §1
# [5] = system: Danio rerio embryo/larva; test: BMC tail defects; max tested concentration (log10 uM): 1.90309; higher = less potent; details: exposure: 6-8 hpf to 5 dpf, scored at 6 dpf
# Procedure: as §2
# [6] = system: Danio rerio embryo/larva; test: BMC blood pooling; max tested concentration (log10 uM): 1.90309; higher = less potent; details: exposure: 6-8 hpf to 5 dpf, scored at 6 dpf
# Procedure: as §2
# [7] = system: Danio rerio embryo/larva; test: BMC any abnormality; max tested concentration (log10 uM): 1.90309; higher = less potent; details: exposure: 6-8 hpf to 5 dpf, scored at 6 dpf
# Procedure: as §2
# [8] = system: Danio rerio embryo/larva; test: max % larvae unhatched across tested concentrations; max tested concentration (log10 uM): 1.90309; higher = more toxic; details: exposure: 6-8 hpf to 5 dpf, scored at 6 dpf
# [9] = system: Danio rerio embryo/larva; test: max % larvae with any abnormality across tested concentrations; max tested concentration (log10 uM): 1.90309; higher = more toxic; extreme values may be limits of the assay; details: exposure: 6-8 hpf to 5 dpf, scored at 6 dpf
compound,measurement,setting,value
O=S(=O)(O)C(F)(F)C(F)(F)C(F)(F)C(F)(F)C(F)(F)C(F)(F)C(F)(F)F [Perfluoroheptanesulfonic acid],BMC edema,[1],18.5 µM
same,BMC abnormal position,[2],17.7 µM
same,BMC craniofacial defects,[3],18.1 µM
same,BMC swim bladder non-inflation,[4],15.6 µM
same,BMC tail defects,[5],27 µM
same,BMC blood pooling,[6],61 µM
same,BMC any abnormality,[7],15.6 µM
same,max % larvae unhatched across tested concentrations,[8],0%
same,max % larvae,[9],100%
